Read-outs that look alike come from different tables or passages of the source.
What was measured:
[1] = tested on: P. aeruginosa ATCC 27853; experiment: MIC of the strain used in the gentamicin/meropenem checkerboard; assay type: cell-based; details: P. aeruginosa ATCC 27853, FIG. 6A legend
Experimental: FIG. 6A-C presents a (A) P. aeruginosa ATCC 27853 5×5 checkerboard with gentamicin (MIC: 1 μg/mL) and meropenem (MIC: 0.5 μg/mL). Assay results after 3.5 hours of incubation at 37° C. (B) A 3×3 checkerboard of gentamicin and meropenem on the same P. aeruginosa strain. (C) An exemplary embodiment of a 96-well checkerboard plate for 66 combinations. ABX are gray-scaled with different intensities to represent different concentrations.
The disclosure provides for the establishment and validation of an automated protocol to assess combinations of two or more antimicrobials to assess antimicrobial susceptibility directly from pediatric patients' specimens during an emergency or unprecedented pandemic. The direct-from-specimen AST protocols discussed above are expanded into a 96-well plate-based checkerboard test to assess 66 preselected combinations of 25 antibiotics as illustrated in FIG. 6C.

[2] = tested on: CDC69 (resistant strain); experiment: Direct-from-specimen AST, GC ratio trend over increasing meropenem concentrations; assay type: cell-based; details: CDC 69; 4-hour antibiotic exposure; meropenem 1 to 64 μg/mL; agrees with CDC AR Bank MIC
Source text: (§1) The direct-from-specimen AST disclosed herein will start with various types of specimens with an unknown concentration of pathogens, from 0 to >10^8 CFU/mL. In order to determine the minimum assay time needed for quantification of RNA transcription at different levels of pathogen concentration, a correlation between the limit of detection (LOD) of the current molecular analysis platform (see FIG. 3 steps 1-17) with the assay turnaround time (TAT) was established (see FIG. 4). […] Target pathogen enrichment and matrix component removal can be carried out by the built-in centrifugal module to achieve lower target LODs with TAT of 42 minutes to 110 minutes. For low-abundance pathogens and early infection diagnostics, additional viability culture steps with TAT of 240 minutes to 330 minutes can be included to achieve an LOD of <10 CFU/mL. The direct-from-specimen AST method disclosed herein will encompass these assay parameters. […] Semi-automatic AST tests directly from whole blood and urine contrived samples were evaluated in FIG. 5 A-C. […]
(§2) Direct-from-specimen AST Analytical Validation Protocol: (1) The user loads the specimen collection tube into the system, which then (2) scans the bar code to determine specimen type. […] The system incubates enzyme, then performs electrochemical reading and (10) AST reporting.

[3] = tested on: CDC77 (susceptible strain); experiment: as above; assay type: cell-based; details: 4-hour antibiotic exposure, meropenem 1 to 64 μg/mL, agrees with CDC AR Bank MIC
Source text: as §1, §2

[4] = tested on: CDC 349 E. coli; details: cited from earlier work
[5] = tested on: KP 525; details: cited from earlier work
[6] = tested on: CDC Proteus mirabilis (PM) 29; details: CDC PM 29; cited from earlier work
[7] = tested on: CDC KP 522; details: cited from earlier work
[8] = tested on: KP 525; experiment: Preliminary accelerated colistin AST, 2 hours drug-bug exposure; assay type: cell-based, Klebsiella pneumoniae; details: colistin 0.25-8 μg/mL, 2 hours exposure
Source text: (§3) Direct-from-specimen of HR approach. HR is a poorly characterized phenomenon and the lack of consensus-based standards further complicates the study of antibiotic resistance. In addition, its clinical relevance is uncertain due to a lack of a standardized procedure to be implemented into the current workflow in clinical microbiology laboratories. […] FIG. 8C is the HR testing on the system.

[9] = tested on: CDC KP 522; experiment: as above; assay type: cell-based, Klebsiella pneumoniae; details: colistin 0.25-8 μg/mL, 2 hours exposure
Source text: as §3

[10] = tested on: Klebsiella pneumoniae (KP) 138; details: cited from earlier work
[11] = tested on: CDC Enterobacter cloacae (EbC) 545; details: CDC EbC 545; cited from earlier work
[12] = tested on: CDC Proteus mirabilis (PM) 29; experiment: Preliminary accelerated colistin AST, 2 hours drug-bug exposure; assay type: cell-based; details: CDC PM 29; 2 hours exposure
Source text: as §3

[13] = tested on: Klebsiella pneumoniae (KP) 138; experiment: as above; assay type: cell-based; details: 2 hours CST exposure in stripwell, FIG. 8A
Source text: as §3

[14] = tested on: CDC Enterobacter cloacae (EbC) 545; experiment: as above; assay type: cell-based; details: 2 hours CST exposure in stripwell, FIG. 8A
Source text: as §3

Molecule gentamicin has an MIC [1] of 1 µg/mL.
For C[C@@H](O)[C@H]1C(=O)N2C(C(=O)O)=C(S[C@@H]3CN[C@H](C(=O)N(C)C)C3)[C@H](C)[C@H]12 [meropenem], the MIC ([1]; Pseudomonas aeruginosa, ATCC27853, read-out: MIC) was 0.5 µg/mL, the “MIC reported from trend of GC ratio” value [2] was 8 µg/mL and the “MIC reported from trend of GC ratio” value [3] was < 1 µg/mL.
For colistin, the MIC [4] is listed as 2 to 4 µg/mL, the MIC [5] is listed as > 8 µg/mL and the “MIC (listed)” value [6] is listed as > 4 µg/mL. The MIC [7] was > 8 µg/mL, the “growth response to colistin exposure” value [8] was “not affected” and the “growth response to colistin exposure” value [9] was “not affected”. For the same molecule, the MIC [10] was 2 µg/mL, the MIC [11] was ≤ 0.25 µg/mL and the “susceptibility to colistin relative to other strains tested” value [12] was “least susceptible”. The “growth response to colistin exposure” value [13] was “clear inhibited growth” and the “growth response to colistin exposure” value [14] was “clear inhibited growth”.

From patent publication US20210403975A1, “PHENOTYPIC ANTIMICROBIAL SUSCEPTIBILITY PROFILING OF UNIDENTIFIED PATHOGENS DIRECTLY FROM PATIENT SAMPLES” (GeneFluidics, Inc., priority 2020, published 2021)
